Reference: article PMC10326263 (Acta Pharmaceutica Sinica. B, 2023)
“Also recorded” adds a separate entry of the source.

Legend:
[1] = Cytotoxicity in mock-infected MT-4 cells, MTT method; type: cell-based; details: human, mock-infected MT-4 cells, CC50, mock-infected MT-4 cells
MT-4 cells = assay: as above; type: cell-based
[2] = test system: HIV-1 mutant strain L100I; assay: microbe, parasite or virus in culture; type: cell-based; details: Human immunodeficiency virus 1, MT4, read-out: EC50 L100I
[3] = test system: HIV-1 mutant strain K103N; assay: microbe, parasite or virus in culture; type: cell-based; details: Human immunodeficiency virus 1, MT4, read-out: EC50 K103N
[4] = test system: HIV-1 mutant strain Y181C; assay: microbe, parasite or virus in culture; type: cell-based; details: Human immunodeficiency virus 1, MT4, read-out: EC50 Y181C
[5] = test system: HIV-1 mutant strain Y188L; assay: microbe, parasite or virus in culture; type: cell-based; details: Human immunodeficiency virus 1, MT4, read-out: EC50 Y188L
[6] = test system: HIV-1 mutant strain E138K; assay: microbe, parasite or virus in culture; type: cell-based; details: Human immunodeficiency virus 1, MT4, read-out: EC50 E138K
[7] = test system: HIV-1 mutant strain F227L + V106A; assay: microbe, parasite or virus in culture; type: cell-based; details: Human immunodeficiency virus 1, MT4, read-out: EC50 F227L + V106A
[8] = test system: HIV-1 mutant strain RES056 (K103N + Y181C); assay: microbe, parasite or virus in culture; type: cell-based; details: Human immunodeficiency virus 1, MT4, read-out: EC50 RES056
SPF Kunming mice [9] = assay: Acute toxicity experiment in mice; type: in vivo; details: 7 days
SPF Kunming mice [10] = assay: Subacute toxicity experiment in mice; type: in vivo
[11] = In vivo pharmacokinetics study in rats; details: male, Sprague-Dawley, rat, plasma
HIV-1 WT strain (IIIB) = assay: Anti-HIV activity against WT HIV-1

**Q.** For `Cc1cc(C)cc(S(=O)(=O)c2c(C(=O)NCCCCNS(=O)(=O)c3cccnc3)[nH]c3ccc(Cl)cc23)c1` [R10L4, 5-Chloro-3-((3,5-dimethylphenyl)sulfonyl)-N-(4-(pyridine-3-sulfonamido)butyl)-1H-indole-2-carboxamide], which CC50 at 5 days [1] is on record?
**A.** Its CC50 at 5 days is 216000 nM.

**Q.** What about the “fold decrease in cytotoxicity compared to IAS-0” value (MT-4 cells; CC50, MT-4 cells) of the same compound?
**A.** Its value is about 40 fold.

**Q.** And the CC50 (MT-4 cells; mock-infected MT-4 cells)?
**A.** The CC50 was 216500 ± 520 nM.

**Q.** What about the EC50 [2] of the same compound?
**A.** The EC50 was 17 ± 2 nM.

**Q.** And the EC50 [3]?
**A.** The EC50 was 68 ± 12 nM.

**Q.** What about the EC50 [4] of the same compound?
**A.** The EC50 was 45 ± 10 nM.

**Q.** And the EC50 [5]?
**A.** The EC50 was 540 ± 87 nM.

**Q.** What about the EC50 [6] of the same compound?
**A.** Its EC50 is 17 ± 7 nM.

**Q.** And the EC50 [7]?
**A.** Its EC50 is 87 ± 35 nM.

**Q.** And the EC50 [8]?
**A.** The EC50 was 5260 nM.

**Q.** What about the “mortality or behavior changes, acute toxicity” value (SPF Kunming mice [9]; 800 mg/kg intragastric) of the same compound?
**A.** The value was “no remarkable in vivo toxic effects; also recorded: did not lead to any mortality or observable behavior changes”.

**Q.** And the “body weight, acute toxicity” value (SPF Kunming mice [9]; 800 mg/kg, compared with blank group)?
**A.** The value was “only insignificant body weight loss was seen”.

**Q.** And the “mortality or behavior changes, subacute toxicity” value (SPF Kunming mice [10]; 50 mg/kg p.o., 12 days)?
**A.** Its value is “no remarkable in vivo toxic effects; also recorded: did not lead to any mortality or observable behavior changes”.

**Q.** And the “body weight, subacute toxicity” value (SPF Kunming mice [10]; 50 mg/kg, 12 days, compared with blank group)?
**A.** Its value is “only insignificant body weight loss was seen”.

**Q.** What about the “pathology of hematoxylin and eosin-stained slices from vital organs” value (SPF Kunming mice [10]; end of subacute toxicity test, heart, liver, spleen, lung, kidney) of the same compound?
**A.** Its value is “no marked pathological abnormalities”.

**Q.** What about the AUC(0-inf) ([11]; iv, 2 mg/kg) of the same compound?
**A.** The AUC(0-inf) was 481 ± 63.3 ng·h/mL.

**Q.** And the AUC(0-t) ([11]; iv, 2 mg/kg)?
**A.** Its AUC(0-t) is 472 ± 63.4 ng·h/mL.

**Q.** What about the MRT inf ([11]; iv, 2 mg/kg) of the same compound?
**A.** Its MRT inf is 1.45 ± 0.09 h.

**Q.** What about the Tmax ([11]; iv, 2 mg/kg) of the same compound?
**A.** Its Tmax is 0.083 h.

**Q.** What about the clearance ([11]; iv, 2 mg/kg) of the same compound?
**A.** Its clearance is 70.2 mL/min/kg.

**Q.** What about the half-life ([11]; iv, 2 mg/kg) of the same compound?
**A.** Its half-life is 1.61 ± 0.04 h.

**Q.** What about the Cmax ([11]; iv, 2 mg/kg, i.v. 2 mg/kg) of the same compound?
**A.** The Cmax was 657 ± 99.2 ng/mL.

**Q.** And the bioavailability ([11]; oral, 10 mg/kg)?
**A.** Its bioavailability is 8.5%.

**Q.** What about the AUC(0-inf) ([11]; po, 10 mg/kg) of the same compound?
**A.** The AUC(0-inf) was 203 ± 38.4 ng·h/mL.

**Q.** What about the AUC(0-t) ([11]; po, 10 mg/kg) of the same compound?
**A.** Its AUC(0-t) is 199 ± 38.7 ng·h/mL.

**Q.** And the MRT inf ([11]; po, 10 mg/kg)?
**A.** The MRT inf was 2.27 ± 0.05 h.

**Q.** And the Tmax ([11]; po, 10 mg/kg)?
**A.** The Tmax was 0.83 ± 0.15 h.

**Q.** And the half-life ([11]; po, 10 mg/kg)?
**A.** Its half-life is 1.78 ± 0.25 h.

**Q.** And the Cmax ([11]; po, 10 mg/kg, p.o. 10 mg/kg)?
**A.** The Cmax was at most 80 ng/mL.

**Q.** What about the “selectivity index, times higher than that of IAS-0” value (HIV-1 WT strain (IIIB); WT HIV-1) of the same compound?
**A.** Its value is about 14 times.

**Q.** And the “SI IIIB (CC50/EC50 ratio)” value (HIV-1 WT strain (IIIB); WT HIV-1 IIIB)?
**A.** The value was 30,930.
